Data taken from patent publication US9408387B2, “Safening 6-amino-2-(substituted phenyl)-5-substituted-4-pyrimidinecarboxylate herbicide injury on cereal crops” (Dow AgroSciences LLC, priority 2009, dated 2016).

Columns and labels:
Format in all cases: in vivo
AMARE = assay: Postemergence herbicidal activity, greenhouse, visual injury: AMARE; conditions: 20-22 d
Procedure: (§1) Evaluation of Postemergence Herbicidal Safening in Cereal Crops
(§2) Seeds of the desired test plant species were planted in Sun Gro MetroMix® 306 planting mixture, which typically has a pH of 6.0 to 6.8 and an organic matter content of about 30 percent, in plastic pots with a surface area of 103.2 square centimeters (cm^2). When required to ensure good germination and healthy plants, a fungicide treatment and/or other chemical or physical treatment was applied. The plants were grown for 7-36 days (d) in a greenhouse with an approximate 14-hour (h) photoperiod which was maintained at about 18° C. during the day and 17° C. during the night. Nutrients and water were added on a regular basis and supplemental lighting was provided with overhead metal halide 1000-Watt lamps as necessary. The plants were employed for testing when they reached the second or third true leaf stage.
(§3) Treatments consisted of the acids or esters of compounds 1-10 and cloquintocet-mexyl (CQC-M), fenchlorazole-ethyl, mefenpyr-diethyl alone and in combination. Weighed amounts of acid or methyl esters of the compounds of formula (I) were dissolved in a volume of 97:3 v/v acetone/dimethylsulfoxide (DMSO) to obtain concentrated solutions. […] The concentrated solutions of the test compound were diluted with the addition of an aqueous mixture containing acetone, water, isopropyl alcohol, DMSO, Agri-Dex crop oil concentrate, and Triton® X-77 surfactant in a 64.7:26.0:6.7:2.0:0.7:0.01 v/v ratio. Test compounds were diluted to the appropriate application rate with a dilution solution which was prepared by mixing the appropriate volume of 97:3 v/v acetone/DMSO and the appropriate volume of an aqueous mixture containing acetone, water, isopropyl alcohol, DMSO, Agri-Dex crop oil concentrate, and Triton® X-77 surfactant in a 64.7:26.0:6.7:2.0:0.7:0.01 v/v ratio. Compound requirements are based upon a 12 mL application volume at a rate of 187 liters per hectare (L/ha). The concentrated solutions of the safener were prepared following the same procedure. Weighed amounts of safener were dissolved in a volume of 97:3 v/v acetone/DMSO to obtain concentrated safener solutions.
(§4) Spray solutions of the herbicide safener and test compound mixtures were prepared by adding the concentrated solutions to the appropriate amount of dilution solution to form 12 mL spray solution with active ingredients in combinations.
(§5) Formulated compounds were applied to the plant material with an overhead Mandel track sprayer equipped with 8002E nozzles calibrated to deliver 187 L/ha over an application area of 0.503 square meters (m^2) at a spray height of 18 inches (43 centimeters (cm)) above average plant canopy. Control plants were sprayed in the same manner with the solvent blank.
(§6) The treated plants and control plants were placed in a greenhouse as described above and watered by sub-irrigation to prevent wash-off of the test compounds. After 20-22 d, the condition of the test plants as compared with that of the control plants was determined visually and scored on a scale of 0 to 100 percent where 0 corresponds to no injury and 100 corresponds to complete kill.
(§7) Colby's equation was used to determine the herbicidal effects expected from the mixtures (Colby, S. R. Calculation of the synergistic and antagonistic response of herbicide combinations. Weeds 1967, 15, 20-22.).
(§8) The following equation was used to calculate the expected activity of mixtures containing two active ingredients, A and B: Expected=A+B−(A×B/100) […]

[1] = test system: winter barley (Hordeum vulgare L; HORVW); assay: Postemergence herbicidal safening in cereal crops, greenhouse, visual injury: winter barley; conditions: 20-22 d
In short: (§9)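 Greenhouse plants at second–third true leaf stage sprayed postemergence at 187 L/ha with compound acids/esters, alone or mixed with safeners (cloquintocet-mexyl, fenchlorazole-ethyl, mefenpyr-diethyl), in acetone/DMSO-based carrier with crop oil and surfactant. Injury scored visually against solvent-blank controls after 20–22 d (0–100%); expected mixture effects from Colby's equation.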

[2] = test system: purple deadnettle (Lamium purpureum L; LAMPU); assay: Postemergence herbicidal activity, greenhouse, visual injury: purple deadnettle
In short: as §9

MATCH = assay: Postemergence herbicidal activity, greenhouse, visual injury: MATCH; conditions: for MATCH Ob (visual injury): 20-22 d
Procedure: as §1, §2, §3, §4, §5, §6, §7
(§10) The following equation was used to calculate the expected activity of mixtures containing two active ingredients, A and B: Expected=A+B−(A×B/100)
(§11) A=observed efficacy of active ingredient A at the same concentration as used in the mixture.
(§12) B=observed efficacy of active ingredient B at the same concentration as used in the mixture.

[3] = test system: spring wheat (Triticum aestivum L; TRZAS); assay: Postemergence herbicidal safening in cereal crops, greenhouse, visual injury: spring wheat
In short: as §9

[4] = test system: wild mustard (Sinapis arvensis L.; SINAR); assay: Postemergence herbicidal activity, greenhouse, visual injury: SINAR
[5] = test system: winter wheat (Triticum aestivum L; TRZAW); assay: Postemergence herbicidal safening in cereal crops, greenhouse, visual injury: winter wheat; conditions: 20-22 d
In short: as §9

SASKR = assay: Postemergence herbicidal activity, greenhouse, visual injury: SASKR; conditions: for SASKR Ob (visual injury): 20-22 d
Procedure: as §1, §2, §3, §4, §5, §6, §7, §10, §11, §12

GALAP = assay: Postemergence herbicidal activity, greenhouse, visual injury: GALAP; conditions: 20-22 d
Procedure: as §1, §2, §3, §4, §5, §6, §7, §8

[6] = test system: spring barley (Hordeum vulgare L; HORVS); assay: Postemergence herbicidal safening in cereal crops, greenhouse, visual injury: spring barley
In short: as §9

[7] = test system: bird's-eye speedwell (Veronica persica L; VERPE); assay: Postemergence herbicidal activity, greenhouse, visual injury: bird's-eye speedwell
Procedure: as §1, §2, §3, §4, §5, §6, §7, §10, §11, §12

[8] = Compound 10 0, CQC-M 8.75 g ae/ha
[9] = Compound 10 0, CQC-M 17.5 g ae/ha
[10] = Compound 10 0, CQC-M 35 g ae/ha
[11] = Compound 10 0, CQC-M 70 g ae/ha
[12] = Compound 10 0, CQC-M 140 g ae/ha

CCCCCC(C)OC(=O)COc1ccc(Cl)c2cccnc12 (stereo not drawn) [CQC-M, cloquintocet-mexyl, reference compound]
0%: AMARE Ob (visual injury) (AMARE; safener alone 35 g/ha) | AMARE Ob (visual injury) (AMARE; safener alone 70 g/ha) | AMARE Ob (visual injury) (AMARE; safener alone 140 g/ha) | HORVW Ob (visual injury) ([1]; safener alone 0.547 g/ha) | HORVW Ob (visual injury) ([1]; safener alone 2.1875 g/ha) | HORVW Ob (visual injury) ([1]; safener alone 8.75 g/ha) | HORVW Ob (visual injury) ([1]; safener alone 35 g/ha) | HORVW Ob (visual injury) ([1]; safener alone 70 g/ha) | HORVW Ob (visual injury) ([1]; safener alone 140 g/ha) | LAMPU Ob (Observed values, % control) [2, 8] | LAMPU Ob (Observed values, % control) [2, 9] | LAMPU Ob (Observed values, % control) [2, 10] | LAMPU Ob (Observed values, % control) [2, 11] | LAMPU Ob (Observed values, % control) [2, 12] | pest or weed control at 35 g/ha ([2]; Lamium purpureum, post-emergence, 480 h, safener alone 35 g/ha, 20-22 d, read-out: LAMPU Ob (visual injury)) | pest or weed control at 140 g/ha ([2]; Lamium purpureum, post-emergence, 480 h, safener alone 140 g/ha, 20-22 d, read-out: LAMPU Ob (visual injury)) | MATCH Ob (Observed values, % control) (MATCH; [8]) | MATCH Ob (Observed values, % control) (MATCH; [9]) | MATCH Ob (Observed values, % control) (MATCH; [10]) | MATCH Ob (Observed values, % control) (MATCH; [11]) | MATCH Ob (Observed values, % control) (MATCH; [12]) | MATCH Ob (visual injury) (MATCH; safener alone 70 g/ha) | MATCH Ob (visual injury) (MATCH; safener alone 140 g/ha) | pest or weed control at 0.547 g/ha ([3]; Triticum aestivum, post-emergence, 480 h, safener alone 0.547 g/ha, 20-22 d, read-out: TRZAS Ob (visual injury)) | pest or weed control at 2.1875 g/ha ([3]; Triticum aestivum, post-emergence, 480 h, safener alone 2.1875 g/ha, 20-22 d, read-out: TRZAS Ob (visual injury)) | pest or weed control at 8.75 g/ha ([3]; Triticum aestivum, post-emergence, 480 h, safener alone 8.75 g/ha, 20-22 d, read-out: TRZAS Ob (visual injury)) | pest or weed control at 35 g/ha ([3]; Triticum aestivum, post-emergence, 480 h, safener alone 35 g/ha, 20-22 d, read-out: TRZAS Ob (visual injury)) | pest or weed control at 140 g/ha ([3]; Triticum aestivum, post-emergence, 480 h, safener alone 140 g/ha, 20-22 d, read-out: TRZAS Ob (visual injury)) | TRZAS Ob (Observed values, % control) ([3]; in vivo) | SINAR Ob (Observed values, % control) [4, 8] | SINAR Ob (Observed values, % control) [4, 9] | SINAR Ob (Observed values, % control) [4, 10] | SINAR Ob (Observed values, % control) [4, 11] | SINAR Ob (Observed values, % control) [4, 12] | TRZAW Ob (visual injury) ([5]; safener alone 0.547 g/ha) | TRZAW Ob (visual injury) ([5]; safener alone 2.1875 g/ha) | TRZAW Ob (visual injury) ([5]; safener alone 8.75 g/ha) | TRZAW Ob (visual injury) ([5]; safener alone 35 g/ha) | TRZAW Ob (visual injury) ([5]; safener alone 70 g/ha) | TRZAW Ob (visual injury) ([5]; safener alone 140 g/ha) | SASKR Ob (Observed values, % control) (SASKR; [8]) | SASKR Ob (Observed values, % control) (SASKR; [9]) | SASKR Ob (Observed values, % control) (SASKR; [10]) | SASKR Ob (Observed values, % control) (SASKR; [11]) | SASKR Ob (Observed values, % control) (SASKR; [12]) | SASKR Ob (visual injury) (SASKR; safener alone 70 g/ha) | SASKR Ob (visual injury) (SASKR; safener alone 140 g/ha) | GALAP Ob (visual injury) (GALAP; safener alone 35 g/ha) | GALAP Ob (visual injury) (GALAP; safener alone 70 g/ha) | GALAP Ob (visual injury) (GALAP; safener alone 140 g/ha) | pest or weed control at 0.547 g/ha ([6]; Hordeum vulgare, post-emergence, 480 h, safener alone 0.547 g/ha, 20-22 d, read-out: HORVS Ob (visual injury)) | pest or weed control at 2.1875 g/ha ([6]; Hordeum vulgare, post-emergence, 480 h, safener alone 2.1875 g/ha, 20-22 d, read-out: HORVS Ob (visual injury)) | pest or weed control at 8.75 g/ha ([6]; Hordeum vulgare, post-emergence, 480 h, safener alone 8.75 g/ha, 20-22 d, read-out: HORVS Ob (visual injury)) | HORVS Ob (Observed values, % control) ([6]; in vivo) | VERPE Ob (Observed values, % control) [7, 8] | VERPE Ob (Observed values, % control) [7, 9] | VERPE Ob (Observed values, % control) [7, 10] | VERPE Ob (Observed values, % control) [7, 11] | VERPE Ob (Observed values, % control) [7, 12] | VERPE Ob (visual injury) ([7]; safener alone 8.75 g/ha, 20-22 d)
